Article PMC9654711, “Neuroprotective Action of Coumarin Derivatives through Activation of TRKB-CREB-BDNF Pathway and Reduction of Caspase Activity in Neuronal Cells Expressing Pro-Aggregated Tau Protein” (International Journal of Molecular Sciences, 2022)

Legend:
[1] = DPPH free radical-scavenging assay; conditions: compounds tested 10–80 μM; DPPH 100 µM; linear interpolation
Procedure: The potential free radical-scavenging activity of test compounds was assayed using stable free radical 1,1-diphenyl-2-picrylhydrazyl (DPPH) (Sigma-Aldrich). Briefly, kaempferol, LM-031 or LMDS-1 to -4 (10–80 µM) was added to DPPH (100 µM in 99% ethanol). The solution was vortexed for 15 s, left for 30 min at room temperature, the mixture was transferred to a 96-well UV-transparent microplate and the absorbance at 517 nm was measured using a Multiskan^TM GO microplate spectrophotometer (Thermo Fisher Scientific, Waltham, MA, USA). Radical-scavenging activity was calculated using the equation: 1 − (absorbance of sample/absorbance of control) × 100%, and EC50 estimated using the linear interpolation method.

[2] = High-content analysis of ΔK280 tauRD-DsRed fluorescence and cell number (folding reporter); format: cell-based, human; conditions: human; induced ΔK280 tauRD-DsRed SH-SY5Y; compounds 2.5–10 µM; read-out: IC50 cytotoxicity based on the cell number analyzed
Procedure: On day 1, ∆K280 tauRD-DsRed SH-SY5Y cells were seeded in a 96-well plate (3 × 10^4/well), with retinoic acid (10 µM; Sigma-Aldrich) added to induce neuronal differentiation. […] […] For ROS measurement, dichloro-dihydro-fluorescein diacetate (DCFH-DA, 10 µM; Invitrogen, Carlsbad, CA, USA) was added to the cells on day 8 and incubated at 37 °C for 30 min.

[3] = system: ΔK280 tauRD-DsRed SH-SY5Y cells; experiment: High-content analysis of neurite outgrowth; format: cell-based, human; conditions: 10 µM; for Neurite branching: induced untreated 0.87, uninduced 0.99; for Neurite length: induced untreated 27.2 μm, uninduced 30.9 μm
Procedure: As described, ∆K280 tauRD-DsRed SH-SY5Y cells were seeded in a 24-well plate (5 × 10^4/well) with retinoic acid addition on day 1, treated with tested compounds (10 µM) and ∆K280 tauRD-DsRed expression was induced with doxycycline (2 μg/mL) on day 2. On day 8, after being fixed in 4% paraformaldehyde for 15 min, permeabilized in 0.1% Triton X-100 for 10 min and blocked in 3% bovine serum albumin (BSA) for 20 min, the cells were stained with TUBB3 (neuronal class III β-tubulin) primary antibody (1:1000; BioLegend, San Diego, CA, USA) at 4 °C overnight, followed by goat anti-rabbit Alexa Fluor® 555 secondary antibody (1:1000; Molecular probes) at room temperature for 2 h, with 4′-6-diamidino-2-phenylindole (DAPI, 0.1 µg/mL; Sigma-Aldrich) included for nuclei staining. Neuronal images were captured using the high-content analysis system as described. Neurite total length (μm), processes (primary neurite extensions projecting directly from the cell body) and branching (points at which primary neurites bifurcated) were analyzed using Neurite Outgrowth Application Module (MetaXpress; Molecular Devices). Around 5000 cells were analyzed in each of three independent experiments for each sample.

[4] = Oxygen radical antioxidant capacity (ORAC) assay; conditions: compound at 100 μM
Procedure: In addition, an oxygen radical antioxidant capacity (ORAC) assay was performed using an OxiSelect™ kit according to the manufacturer’s instruction (Cell Biolabs, San Diego, CA, USA). Briefly, Trolox standards (2.5–50 μM) and samples (4–100 μM) were diluted with 50% acetone. Blank (50% acetone), standards and samples were mixed with fluorescein and incubated at 37 °C for 30 min. Following the free radical initiator 2,2′-azobis(2-methylpropionamidine) dihydrochloride (AAPH), the produced peroxyl radicals (ROO•) quench the fluorescent probe over time. Antioxidants present in the assay block the peroxyl radical oxidation of the fluorescent probe. The course of the reaction was recorded for 60 min, with one measurement every five minutes using a BioTek FLx800 microplate reader. The excitation and emission wavelengths were set at 480 nm and 520 nm, respectively. To quantify the oxygen radical antioxidant activity in a sample, the area under the curve (AUC) for blank, standard and samples was calculated. After subtraction of the blank, the equivalent Trolox concentrations of samples were expressed based on the Trolox standard curve.

[5] = biological target: T1, TRKB-ECD-His (extracellular domain of TRKB) (Homo sapiens, UniProt Q16620); experiment: Tryptophan fluorescence quenching assay; conditions: TRKB-ECD-His 50 nM in PBS; excitation 295 nm, emission 330 nm; compounds 0–1000 nM; read-out: TRKB-ECD binding affinity (KD)
T1 construct: extracellular domain of TRKB (TRKB-ECD) (residues 32–429, XP_016870240); Saccharomyces cerevisiae α-factor secretion signal (N, cleaved yes); made in house; host or cells: Pichia pastoris
T1 sequence (Q16620 32-429): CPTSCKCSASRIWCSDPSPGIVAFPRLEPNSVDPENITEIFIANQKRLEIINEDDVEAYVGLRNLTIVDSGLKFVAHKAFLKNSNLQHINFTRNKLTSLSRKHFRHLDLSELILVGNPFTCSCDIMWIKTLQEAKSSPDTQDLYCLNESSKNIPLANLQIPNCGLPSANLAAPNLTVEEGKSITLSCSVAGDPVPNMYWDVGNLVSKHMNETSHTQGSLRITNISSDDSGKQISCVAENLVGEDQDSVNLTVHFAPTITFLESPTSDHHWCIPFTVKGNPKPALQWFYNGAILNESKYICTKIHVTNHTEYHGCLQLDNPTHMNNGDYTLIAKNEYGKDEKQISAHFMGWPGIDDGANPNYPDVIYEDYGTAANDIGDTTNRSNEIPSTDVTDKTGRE
Source text: The cDNA fragment containing the full-length extracellular domain of TRKB (TRKB-ECD) (residues 32–429, XP_016870240) was amplified from pDONR223-NTRK2 plasmid (Addgene, Watertown, MA, USA) using forward primer 5′-ctcgagaaaagagaggctgaagctTGTCCCACGTCCTGAAATG (XhoI site and Kex2 cleavage of the signal sequence in lowercase letters) and reverse primer 5′-gtcgac[…] (SalI site in lowercase letters). After cloning and sequencing, the TRKB-ECD fragment was excised with XhoI and SalI and subcloned into Pichia expression vector pGAPZα A (Invitrogen). The AvrII-linearized plasmid was then transformed into Pichia pastoris, and stable transformants selected and cultured at 30 °C for 4 days for constitutive expression of recombinant His-tagged TRKB-ECD. The secreted TRKB-ECD-His in cultured medium was purified using Ni-NTA His•Bind resins (Novagen, Madison, WI 53719, USA) according to the supplier’s instructions. Protein purity was examined by Coomassie blue staining of SDS-polyacrylamide gel as well as immunoblotting using anti-His (1:2000; Acris, Herford, Germany) and anti-TRKB (1:1000; Cell Signaling) antibodies.
The interaction between TRKB-ECD-His and LM-031, LMDS-1 or LMDS-2 was determined by tryptophan fluorescence titration. 7,8-DHF (Sigma-Aldrich) was included as a positive control. Tryptophan fluorescence spectra of TRKB-ECD-His (50 nM in PBS) were obtained before and after titration with different concentrations of test compounds (0–1000 nM). The fluorescent quenching was conducted in a cuvette with a 1 cm path length cell by an F-7000 fluorescence spectrophotometer (Hitachi, Tokyo, Japan) at room temperature. The intrinsic fluorescence spectra of TRKB were recorded with excitation wavelength set at 295 nm and emission wavelength in the range 300–400 nm. The dissociation constant (KD) of 7,8-DHF, LM-031, LMDS-1 and LMDS-2 to TRKB was determined by fitting the normalized fluorescence intensity at 330 nm under different concentrations of test compounds using the equation derived from Liu et al.:KD = [P]T (f − 1) + [D]T (1/f − 1), where f is the fractional change, and [P]Tand [D]Tare the total concentration of TRKB-ECD-His protein and test compound, respectively.

Row | EC50 [1] | Kd [5] | SMILES | IC50 at 6 days [2] | Neurite branching [3] | Neurite length [3] | Oxygen radical absorbance capacity, activity equivalent to Trolox [4]
1 | 93 µM | 0.0127 ± 0.0028 µM | O=C(c1ccccc1)c1cc2c(O)cccc2oc1=O [LM-031, 3-benzoyl-5-hydroxychromen-2-one] | 43 µM | 1.00–1.06 | 30.3–31.5 μm | 51 μM Trolox
2 | 122 µM | 0.008 ± 0.017 µM | CCOc1ccc2cc(C(=O)c3ccccc3)c(=O)oc2c1 [LMDS-1] | 25 µM | 1.00–1.06 | 30.3–31.5 μm | 10 μM Trolox
3 | 132 µM | 0.0065 ± 0.0066 µM | O=C(c1ccccc1)c1cc2ccc(O)cc2oc1=O [LMDS-2] | 24 µM | 1.00–1.06 | 30.3–31.5 μm | 15 μM Trolox
